Test results as given in US12344611B2, “Bridged cycloformylpyridine derivatives and uses thereof” (BroadenBio Co., Ltd., priority 2019, dated 2025).

Tests used:
FGFR4 = FGFR4 (Homo sapiens, UniProt P22455); assay: In vitro biochemical kinase analysis of FGFR4 (HTRF KinEASE-TK); details: HTRF kinase assay
Experimental: In Vitro Biochemical Kinase Analysis of FGFR4
FGFR4 protein kinase detection kit was purchased from Cisbio (HTRF KinEASE-TK kit). Prepare 1× kinase reaction buffer. Transfer 10 nL of a diluted compound to each well of a reaction plate (784075, Greiner) with an Echo 550, and seal the plate with sealing film. The reaction plate was centrifuged at 1000 g for 1 minute. Prepare 2×FGFR4 using 1× kinase reaction buffer, add 5 μL of kinase to each well of the reaction plate, seal the plate, centrifuge at 1000 g for 30 seconds, and incubate it at room temperature for 10 minutes. Prepare a mixture of 2×TK-substrate-biotin and ATP using 1× kinase reaction buffer, add 5 μL of TK-substrate-biotin/ATP mixture to the reaction plate, seal the plate with sealing film, centrifuge at 1000 g for 30 seconds, and react at room temperature for 40 minutes. Prepare 2×Sa-XL 665 and TK-antibody-Cryptate mixture using HTRF detection buffer, add 10 μL Sa-XL 665 and TK-antibody-Cryptate mixture to each well, centrifuge at 1000 g for 30 seconds, and react at room temperature for 1 hour. Envision 2104 read fluorescence signals at 615 nm (Cryptate) and at 665 nm (XL665). IC50 of the compound was calculated using the GraphPad nonlinear fitting formula.

Hep 3B hepatoma cells = assay: In vitro cell proliferation assay (CellTiter-Glo, CTG), Hep 3B; type: cell-based, human; details: Hep 3B cells
Experimental: (§1) In Vitro Cell Proliferation Assay of FGFR4 (CellTiter-Glo Luminescent Cell Viability Assay, CTG Assay)
(§2) Hep 3B hepatoma cells were purchased from Cell Resource Center of Peking Union College, and HuH-7 hepatoma cells were purchased from Shanghai Biological Technology Co., Ltd. enzyme research. The cells were prepared at a concentration of 3×10^4/mL, which was then added with 100 μL to each well of a 96-well transparent flat-bottom black-walled plate to make 3000 cells per well. Incubate overnight at 37° C. in 5% CO2 incubator. Dilute a compound and add it to the wells having the cells, then add cell culture medium to 200 μL per well. Put in CO2 incubator for incubation. After 96 hours, 100 μL of culture medium was removed from each well, 100 μL of CTG was added, and the 96-well plate was placed on a shaker for 10 minutes, and placed in the shade at room temperature for 45 minutes. Data was read out by SoftMax Pro i3X Microplate Reader of MD, analyzed by the software GraphPad Prism 5.0, and S-shaped dose-response curve was drawn, then the EC50 values were calculated.

HuH-7 hepatoma cells = assay: In vitro cell proliferation assay (CellTiter-Glo, CTG), HuH-7; type: cell-based; details: HuH-7 cells
Experimental: as §1, §2

Sequence of FGFR4 (P22455 22-802): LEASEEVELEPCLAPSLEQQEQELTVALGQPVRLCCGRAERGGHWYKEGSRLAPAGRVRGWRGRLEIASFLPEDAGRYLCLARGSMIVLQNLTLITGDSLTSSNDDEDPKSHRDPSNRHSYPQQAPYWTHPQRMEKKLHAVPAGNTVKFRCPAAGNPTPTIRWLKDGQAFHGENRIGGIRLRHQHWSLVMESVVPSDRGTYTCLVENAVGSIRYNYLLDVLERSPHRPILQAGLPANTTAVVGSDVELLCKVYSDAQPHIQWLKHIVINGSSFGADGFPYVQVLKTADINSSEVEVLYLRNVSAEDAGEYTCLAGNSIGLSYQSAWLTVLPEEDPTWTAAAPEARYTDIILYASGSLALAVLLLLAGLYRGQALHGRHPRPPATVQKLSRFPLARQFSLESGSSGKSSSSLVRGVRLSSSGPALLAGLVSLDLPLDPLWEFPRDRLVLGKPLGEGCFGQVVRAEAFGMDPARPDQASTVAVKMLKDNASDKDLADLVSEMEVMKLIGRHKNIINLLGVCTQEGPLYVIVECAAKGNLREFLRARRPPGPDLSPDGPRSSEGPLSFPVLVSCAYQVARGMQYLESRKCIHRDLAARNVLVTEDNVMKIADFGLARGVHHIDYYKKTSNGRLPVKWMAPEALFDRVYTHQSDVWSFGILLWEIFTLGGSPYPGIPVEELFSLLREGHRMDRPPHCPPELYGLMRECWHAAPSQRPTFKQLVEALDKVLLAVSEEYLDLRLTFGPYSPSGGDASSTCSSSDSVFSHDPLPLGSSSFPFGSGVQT

| SMILES | IC50 (FGFR4) | EC50 (Hep 3B hepatoma cells; 96 hours) | EC50 (HuH-7 hepatoma cells; 96 hours) | EC50 (Hep 3B hepatoma cells; Homo sapiens, Hep3B, 96 h) | EC50 (HuH-7 hepatoma cells; Homo sapiens, Huh-7, 96 h) |
| --- | --- | --- | --- | --- | --- |
| COC1CCCC1Nc1cc(NC(=O)N2c3nc(C=O)c(CN4CCN(C)CC4=O)cc3C3(F)CC2C3)ncc1C#N (single isomer, unassigned) [Compound 12-P2, N-(5-cyano-4-(((cis)-2-methoxycyclopentyl)amino)pyridin-2-yl)-4-fluoro-7-formyl-64(4-methyl-2-oxopiperazin-1-yl)methyl)-3,4-dihydro-2,4-methylene-1,8-naphthyridine-1(2H)-carboxamide] | 10.9 nM | 39 nM | 95.2 nM |  |  |
| COCCNc1cc(NC(=O)N2c3nc(C=O)ccc3C3(F)CC2C3)ncc1C#N [Compound 1, N-(5-cyano-4-((2-methoxyethyl)amino)pyridin-2-yl)-4-fluoro-7-formyl-3,4-dihydro-2,4-methylene-1,8-naphthyridine-1(2H)-carboxamide] | 0.4 nM |  |  | 15.1 nM | 62 nM |
| COCCNc1cc(NC(=O)N2c3nc(C=O)ccc3C3(O)CC2C3)ncc1C#N [Compound 2, N-(5-cyano-4-((2-methoxyethyl)amino)pyridin-2-yl)-7-formyl-4-hydroxy-3,4-dihydro-2,4-methylene-1,8-naphthyridine-1(2H)-carboxamide] | 2.2 nM |  |  | 8.1 nM | 52 nM |
| COCCNc1cc(NC(=O)N2c3nc(C=O)ccc3C3(OC)CC2C3)ncc1C#N [Compound 3] | 1.6 nM |  |  | 13.4 nM | 42 nM |
| COCCNc1cc(NC(=O)N2c3nc(C=O)c(CN4CCN(C)CC4=O)cc3C3(O)CC2C3)ncc1C#N [Compound 5, N-(5-cyano-4-((2-methoxyethyl)amino)pyridin-2-yl)-7-formyl-4-hydroxy-6-((4-methyl-2-oxopiperazin-1-yl)methyl)-3,4-dihydro-2,4-methylene-1,8-naphthyridine-1(2H)-carboxamide] | 1.8 nM |  |  | 27 nM | 49 nM |
| COC[C@@H](C)Nc1cc(NC(=O)N2c3nc(C=O)c(CN4CCN(C)CC4=O)cc3C3(F)CC2C3)ncc1C#N [Compound 6, (R)—N-(5-cyano-4-((1-methoxyprop-2-yl)amino)pyridin-2-yl)-4-fluoro-7-formyl-6-((4-methyl-2-oxopiperazin-1-yl)methyl)-3,4-dihydro-2,4-methylene-1,8-naphthyridine-1(2H)-carboxamide] | 2.1 nM |  |  | 3.3 nM | 5.9 nM |
| COCCNc1cc(NC(=O)N2c3nc(C=O)c(CN4CCN(C)CC4)cc3C3(F)CC2C3)ncc1C#N [Compound 7] | 5.1 nM |  |  | 669 nM | > 1000 nM |
| COCCNc1cc(NC(=O)N2c3nc(C=O)c(CN(C)C(=O)CN(C)C)cc3C3(F)CC2C3)ncc1C#N [Compound 8] | 2.6 nM |  |  | 11.8 nM | 28 nM |
| COCCOc1cc(NC(=O)N2c3nc(C=O)c(CN4CCN(C)CC4=O)cc3C3(F)CC2C3)ncc1C#N [Compound 9] | 4.9 nM |  |  | 58 nM | 71 nM |
| CN1CCN(Cc2cc3c(nc2C=O)N(C(=O)Nc2cc(NC4CCOC4)c(C#N)cn2)C2CC3(F)C2)C(=O)C1 (stereo not drawn) [Compound 10, N-(5-cyano-4-((tetrahydrofuran-3-yl)amino)pyridin-2-yl)-4-fluoro-7-formyl-6-((4-methyl-2-oxopiperazin-1-yl)methyl)-3,4-dihydro-2,4-methylene-1,8-naphthyridine-1(2H)-carboxamide] | 3.8 nM |  |  | 10 nM | 20 nM |
| COCCNc1cc(NC(=O)N2c3nc(C=O)c(CN4CCOCC4=O)cc3C3(F)CC2C3)ncc1C#N [Compound 13] | 6.9 nM |  |  | 12.6 nM | 74 nM |
| COCCNc1cc(NC(=O)N2c3nc(C=O)c(CN4CCCCOC4=O)cc3C3(F)CC2C3)ncc1C#N [Compound 14] | 3.3 nM |  |  | 7.8 nM | 28 nM |
| CN1CCN(Cc2cc3c(nc2C=O)N(C(=O)Nc2ccc(C(F)(F)F)cn2)C2CC3(F)C2)C(=O)C1 [Compound 16, N-(5-(trifluoromethyl)pyridin-2-yl)-4-fluoro-7-formyl-6-((4-methyl-2-oxopiperazin-1-yl)methyl)-3,4-dihydro-2,4-methylene-1,8-naphthyridine-1(2H)-carboxamide] | 23.2 nM |  |  | 638 nM | > 1000 nM |
| COCCNc1cc(NC(=O)N2c3nc(C=O)c(CN4CCN(C)CC4=O)cc3C3CC2C3)ncc1C#N [Compound 18, N-(5-cyano-4-((2-methoxyethyl)amino)pyridin-2-yl)-7-formyl-6-((4-methyl-2-oxopiperazin-1-yl)methyl)-3,4-dihydro-2,4-methylene-1,8-naphthyridine-1(2H)-carboxamide] | 2.5 nM |  |  | 5.6 nM | 15.1 nM |
| CCc1cc2c(nc1C=O)N(C(=O)Nc1cc(NCCOC)c(C#N)cn1)C1CC2(F)C1 [Compound 21] | 2.1 nM |  |  | 15.8 nM | 28.4 nM |
| COCCOCCNc1cc(NC(=O)N2c3nc(C=O)ccc3C3(OC)CC2C3)ncc1C#N [Compound 22, N-(5-cyano-4-((2-(2-methoxyethoxy)ethyl)amino)pyridin-2-yl)-7-formyl-4-methoxy-3,4-dihydro-2,4-methylene-1,8-naphthyridine-1(2H)-carboxamide] | 4.7 nM |  |  | 125 nM | 125 nM |
| COC[C@@H](C)Nc1cc(NC(=O)N2c3nc(C=O)c(CN4CCN(C)CC4=O)cc3C3CC2C3)ncc1C#N [Compound 24] | 0.6 nM |  |  | 1.4 nM | 1.7 nM |
| COCCOc1cc(NC(=O)N2c3nc(C=O)c(CN4CCN(C)CC4=O)cc3C3CC2C3)ncc1C#N [Compound 25, N-(5-cyano-4-(methoxyethoxy)pyridin-2-yl)-7-formyl-6-((4-methyl-2-oxopiperazin-1-yl)methyl)-3,4-dihydro-2,4-methylene-1,8-naphthyridine-1(2H)-carboxamide] | 2.5 nM |  |  | 19.3 nM | 25.4 nM |
| COCCNc1cc(NC(=O)N2c3nc(C=O)c(CN4CCOCC4=O)cc3C3CC2C3)ncc1C#N [Compound 27, N-(5-cyano-4-((2-methoxyethyl)amino)pyridin-2-yl)-7-formyl-6-((3-oxomorpholinyl)methyl)-3,4-dihydro-2,4-methylene-1,8-naphthyridine-1(2H)-carboxamide] | 1.4 nM |  |  | 6.7 nM | 9.7 nM |
| COCCNc1cc(NC(=O)N2c3nc(C=O)c(CN4CCCCOC4=O)cc3C3CC2C3)ncc1C#N [Compound 28] | 1.1 nM |  |  | 7.2 nM | 6.9 nM |
| COCCNc1cc(NC(=O)N2c3nc(C=O)ccc3C3(OCCN(C)C)CC2C3)ncc1C#N [Compound 29, N-(5-cyano-4-((2-methoxyethyl)amino)pyridin-2-yl)-4-(2-(dimethylamino)ethoxy)-7-formyl-3,4-dihydro-2,4-methylene-1,8-naphthyridine-1(2H)-carboxamide] | 1.1 nM |  |  | 1.2 nM | 0.2 nM |
| COCCNc1cc(NC(=O)N2c3nc(C=O)ccc3C3(NC(=O)C4CCN(C)CC4)CC2C3)ncc1C#N [Compound 31] | 1.1 nM |  |  | 5.5 nM | 4.5 nM |
| COCCNc1cc(NC(=O)N2c3nc(C=O)ccc3C3(NC(=O)c4cnn(C)c4)CC2C3)ncc1C#N [Compound 32, N-(5-cyano-4-((2-methoxyethyl)amino)pyridin-2-yl)-4-(1-methyl-1H-pyrazole-4-carboxamido)-7-formyl-3,4-dihydro-2,4-methylene-1,8-naphthyridine-1(2H)-carboxamide] | 0.5 nM |  |  | 1.7 nM | 0.7 nM |
| COCCNc1cc(NC(=O)N2c3nc(C=O)ccc3C3(OCCOC)CC2C3)ncc1C#N [Compound 36, N-(5-cyano-4-((2-methoxyethyl)amino)pyridin-2-yl)-4-(2-methoxyethoxy)-7-formyl-3,4-dihydro-2,4-methylene-1,8-naphthyridine-1(2H)-carboxamide] | 2.5 nM |  |  | 8.5 nM | 11.8 nM |
| CCS(=O)(=O)NC12CC(C1)N(C(=O)Nc1cc(NCCOC)c(C#N)cn1)c1nc(C=O)ccc12 [Compound 38, N-(5-cyano-4-((2-methoxyethyl)amino)pyridin-2-yl)-4-ethanesulfonamido-7-formyl-3,4-dihydro-2,4-methylene-1,8-naphthyridine-1(2H)-carboxamide] | 2.3 nM |  |  | 9.5 nM | 19.2 nM |
| COCCNc1cc(NC(=O)N2c3nc(C=O)ccc3C3(OCCN4CCOCC4)CC2C3)ncc1C#N [Compound 39] | 1.6 nM |  |  | 7.8 nM | 10 nM |
